{
  "source": "paper PMC8370248",
  "about": "“Key Metabolic Enzymes Involved in Remdesivir Activation in Human Lung Cells” (Antimicrobial Agents and Chemotherapy, 2021)",
  "key": {"CES1c": {"target": "T1, CES1c (Homo sapiens, UniProt P23141)", "T1 construct": "purchased Corning Incorporated (Corning, NY); host or cells: baculovirus-infected insect cells (microsomal fraction, Supersomes)", "T1 sequence (P23141 18-566 isoform P23141-3 limits assumed)": "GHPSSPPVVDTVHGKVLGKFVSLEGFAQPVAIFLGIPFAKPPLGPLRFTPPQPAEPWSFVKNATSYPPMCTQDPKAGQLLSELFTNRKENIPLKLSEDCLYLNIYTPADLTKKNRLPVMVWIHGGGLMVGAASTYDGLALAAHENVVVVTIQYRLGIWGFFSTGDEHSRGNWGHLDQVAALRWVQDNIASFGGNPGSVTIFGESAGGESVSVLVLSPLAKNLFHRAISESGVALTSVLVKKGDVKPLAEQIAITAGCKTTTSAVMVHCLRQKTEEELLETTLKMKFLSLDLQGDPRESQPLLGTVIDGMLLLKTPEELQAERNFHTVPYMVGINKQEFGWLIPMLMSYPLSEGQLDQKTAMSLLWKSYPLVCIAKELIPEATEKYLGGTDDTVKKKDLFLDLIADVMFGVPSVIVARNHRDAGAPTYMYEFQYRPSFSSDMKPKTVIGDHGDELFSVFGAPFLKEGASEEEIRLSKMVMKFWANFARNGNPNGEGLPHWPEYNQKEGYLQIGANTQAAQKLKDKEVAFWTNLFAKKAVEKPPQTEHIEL", "assay": "CES1c-catalyzed hydrolysis of RDV and control (substrate disappearance, LC-MS)", "assay_type": "in vitro ADME", "conditions": "1 μM substrate, CES 1.5 mg/ml, pH 7.4, 37°C", "experimental": "(§1) The catalytic activity of carboxylesterase 1b (CES1b), carboxylesterase 1c (CES1c), CES2, and CatA toward RDV hydrolysis was measured using protein-enriched subcellular fraction (CES isozymes) or recombinant proteins (CatA). The reaction rates were determined by monitoring the disappearance of RDV using a liquid chromatography-mass spectrometry (LC-MS) method.\n(§2) RDV or positive-control substrates (oseltamivir for CES1 or procaine for CES2) were incubated with individual Supersome preparations (final CES concentration, 1.5 mg/ml) in 0.1 M potassium phosphate buffer (pH 7.4) at 37°C. Substrates were added to a final concentration of 1 μM to initiate the reaction. The final incubation volume was 250 μl. Aliquots were removed after incubation for 0, 10, 30, 60, and 120 min. The reactions were stopped by the addition of the quench solution containing the LC-MS internal standard (IS) (labetalol). Following protein precipitation and centrifugation, 150 μl of supernatant was dried down and reconstituted with 250 μl water. All samples were analyzed by an LC-MS, and the analyte/internal standard peak area ratio (PAR) values were used for quantification. Disappearance of RDV or positive-control compounds was monitored over the incubation time period. Three experiments were conducted with two replicates in each experiment, and data are reported as averages from the three experiments.\n(§3) In all studies apart from those with CES1 and CatA with enzyme inhibitors, samples (10-μl aliquots) were injected with a Thermo Scientific autosampler. The LC instrumentation consisted of a Thermo Scientific Dionex UltiMate 3000 RS pump, and the LC column was a Waters Acquity UPLC BEH C18 (1.7 μm particle size, 2.1 by 50 mm). Mobile phases A and B were water 99.9% (vol/vol) containing 0.1% (vol/vol) formic acid, and acetonitrile 99.9% (vol/vol) containing 0.1% (vol/vol) formic acid, respectively, pumped at 0.2 ml/minute. Elution was achieved by a series of linear gradients over 2.33 min followed by reequilibration for 2.57 min. The MS instrument was a Thermo Q Exactive Hybrid Quadrupole-Orbitrap operating in positive or negative ionization mode as appropriate. This was calibrated on a weekly basis, and data were processed with GMSU 8.4.66 software by Gubbs Inc. (Alpharetta, GA). Mass tolerance of 5 ppm was used."}, "CES1b": {"target": "T2, CES1b (Homo sapiens, UniProt P23141)", "T2 construct": "purchased Corning Incorporated (Corning, NY); host or cells: baculovirus-infected insect cells (microsomal fraction, Supersomes)", "T2 sequence (P23141 18-567)": "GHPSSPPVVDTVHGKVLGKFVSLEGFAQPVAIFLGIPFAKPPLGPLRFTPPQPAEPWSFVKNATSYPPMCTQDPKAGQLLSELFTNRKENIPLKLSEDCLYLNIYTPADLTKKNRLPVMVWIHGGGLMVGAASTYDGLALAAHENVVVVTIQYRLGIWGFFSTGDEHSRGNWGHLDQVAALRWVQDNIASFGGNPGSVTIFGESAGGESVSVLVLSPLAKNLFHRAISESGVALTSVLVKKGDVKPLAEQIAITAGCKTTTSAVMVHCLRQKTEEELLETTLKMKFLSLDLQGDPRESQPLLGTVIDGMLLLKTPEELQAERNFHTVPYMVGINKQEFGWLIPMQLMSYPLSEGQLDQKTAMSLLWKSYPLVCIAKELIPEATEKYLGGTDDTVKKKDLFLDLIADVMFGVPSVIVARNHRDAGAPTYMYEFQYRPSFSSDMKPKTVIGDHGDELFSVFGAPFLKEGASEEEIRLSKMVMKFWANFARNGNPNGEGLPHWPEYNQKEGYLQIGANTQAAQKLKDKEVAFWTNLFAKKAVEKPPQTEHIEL", "assay": "CES1b-catalyzed hydrolysis of RDV and control (substrate disappearance, LC-MS)", "assay_type": "in vitro ADME", "conditions": "1 μM substrate, CES 1.5 mg/ml, pH 7.4, 37°C", "experimental": "as §1, §2, §3"}, "CES2": {"target": "T3, CES2 (Homo sapiens, UniProt O00748)", "T3 construct": "purchased Corning Incorporated (Corning, NY); host or cells: baculovirus-infected insect cells (microsomal fraction, Supersomes)", "T3 sequence (O00748 27-559)": "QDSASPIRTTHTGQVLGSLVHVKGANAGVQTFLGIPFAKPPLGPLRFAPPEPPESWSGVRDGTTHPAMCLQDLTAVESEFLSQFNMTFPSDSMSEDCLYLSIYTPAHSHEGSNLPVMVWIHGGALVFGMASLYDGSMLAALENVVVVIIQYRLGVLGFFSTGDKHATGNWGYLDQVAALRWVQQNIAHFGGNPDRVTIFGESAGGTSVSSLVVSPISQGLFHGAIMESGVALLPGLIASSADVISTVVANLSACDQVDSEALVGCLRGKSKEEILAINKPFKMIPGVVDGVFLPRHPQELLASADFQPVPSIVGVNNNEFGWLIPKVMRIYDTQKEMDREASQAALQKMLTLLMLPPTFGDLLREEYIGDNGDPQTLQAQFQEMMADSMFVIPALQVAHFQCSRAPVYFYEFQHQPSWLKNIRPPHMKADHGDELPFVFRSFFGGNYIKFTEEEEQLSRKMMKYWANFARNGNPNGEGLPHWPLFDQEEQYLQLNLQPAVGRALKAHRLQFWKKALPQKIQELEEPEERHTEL", "assay": "CES2-catalyzed hydrolysis of RDV and control (substrate disappearance, LC-MS)", "assay_type": "in vitro ADME", "conditions": "CES 1.5 mg/ml, pH 7.4, 37°C", "experimental": "as §1, §2, §3"}, "[1]": {"assay": "Chemical hydrolysis of MetX under acidic conditions mimicking lysosomal lumen", "assay_type": "physicochemical", "experimental": "P-N bond cleavage of RDV MetX was evaluated under acidic pH, mimicking intracellular lysosomal conditions.\nTo test the chemical stability of RDV MetX under acidic conditions (found within the lysosomal lumen) or neutral conditions (e.g., found in the cytosol of cells), 1 μM compound was incubated in a 250-μl reaction mixture consisting of 100 mM sodium acetate (pH 4.5) or 100 mM HEPES (pH 7.5). […] For reactions carried out at pH 4.5, the pH of the reaction aliquots was raised to pH 9 to 10 by addition of 7.5 μl of 0.2 M NaOH prior to addition of the quenching solution. Following protein precipitation and centrifugation, 150 μl of supernatants were dried down and reconstituted with 250 μl water. All samples were analyzed by LC-MS, and PAR values were used for quantification. Disappearance of MetX was monitored over the incubation time period. Three experiments were conducted with two replicates for each experiment, and data are reported as averages from three experiments."}, "HINT1": {"target": "T4, HINT1 (Homo sapiens, UniProt P49773)", "T4 construct": "purchased Abcam (Cambridge, MA)", "T4 sequence (P49773 whole entry)": "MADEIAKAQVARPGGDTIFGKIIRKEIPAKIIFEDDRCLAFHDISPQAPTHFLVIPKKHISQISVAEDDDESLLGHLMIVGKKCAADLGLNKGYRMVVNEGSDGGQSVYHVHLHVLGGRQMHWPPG", "assay": "HINT1-catalyzed hydrolysis of RDV MetX and positive control", "assay_type": "in vitro ADME"}, "CatA": {"target": "T5, CatA (Homo sapiens, UniProt P10619)", "T5 sequence (P10619 29-326 limits assumed)": "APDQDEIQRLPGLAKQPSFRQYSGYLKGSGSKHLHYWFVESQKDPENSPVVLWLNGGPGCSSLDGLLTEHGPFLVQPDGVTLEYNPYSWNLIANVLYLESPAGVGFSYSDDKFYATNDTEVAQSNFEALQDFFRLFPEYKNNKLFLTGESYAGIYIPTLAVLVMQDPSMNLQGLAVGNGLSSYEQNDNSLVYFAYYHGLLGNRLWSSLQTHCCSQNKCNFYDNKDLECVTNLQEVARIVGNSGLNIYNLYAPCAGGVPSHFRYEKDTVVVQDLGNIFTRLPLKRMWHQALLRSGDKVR", "T5 sequence (P10619 327-480 limits assumed)": "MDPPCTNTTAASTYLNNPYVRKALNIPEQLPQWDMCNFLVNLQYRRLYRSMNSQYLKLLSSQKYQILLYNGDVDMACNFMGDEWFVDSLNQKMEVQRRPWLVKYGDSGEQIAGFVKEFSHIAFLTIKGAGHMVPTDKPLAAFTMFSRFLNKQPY", "assay": "CatA-catalyzed hydrolysis of RDV and control (substrate disappearance, LC-MS)", "experimental": "as §1\nFollowing protein precipitation and centrifugation, 150 μl of supernatant was dried down and reconstituted with 250 μl water. […] Three experiments were conducted with two replicates in each experiment, and data are reported as averages from the three experiments.\nas §3"}, "[2]": {"conditions": "1 μM compound, 100 mM sodium acetate pH 4.5"}},
  "note": "“Also recorded” adds a separate entry of the source. Where a name gives a salt, the structure may show the parent alone.",
  "data": [
    {"smiles": "CCOC(=O)C1=C[C@@H](OC(CC)CC)[C@H](NC(C)=O)[C@@H](N)C1", "note": "[Oseltamivir]", "values": [
      {"measurement": "Activity for amidate ester cleavage, CES1c", "setting": "CES1c", "result": "1.5 ± 0.2 × 10^−2 nmol/min/mg"},
      {"measurement": "half-life at 1 μM", "setting": "CES1c; human, CES1c Supersomes (protein-enriched subcellular fraction), read-out: t1/2, CES1c (converted)", "result": 31, "unit": "min"},
      {"measurement": "Activity for amidate ester cleavage, CES1b", "setting": "CES1b", "result": "2.3 ± 0.1 × 10^−2 nmol/min/mg"},
      {"measurement": "half-life at 1 μM", "setting": "CES1b; human, CES1b Supersomes (protein-enriched subcellular fraction), read-out: t1/2, CES1b (converted)", "result": 20, "unit": "min"}
    ]},
    {"smiles": "CCN(CC)CCOC(=O)c1ccc(N)cc1", "note": "[Procaine]", "values": [
      {"measurement": "Activity for amidate ester cleavage, CES2", "setting": "CES2; 1 μM substrate", "result": "4.4 ± 0.8 × 10^−3 nmol/min/mg"},
      {"measurement": "half-life at 1 μM", "setting": "CES2; human, CES2 Supersomes (protein-enriched subcellular fraction), pH 7.4, 1 μM substrate, read-out: t1/2, CES2 (converted)", "result": 110, "unit": "min"}
    ]},
    {"smiles": "C[C@H](N[P@@](=O)(O)OC[C@H]1O[C@@](C#N)(c2ccc3c(N)ncnn23)[C@H](O)[C@@H]1O)C(=O)O", "note": "[RDV MetX]", "values": [
      {"measurement": "Lysosomal hydrolysis at pH 4.5", "setting": "[1]; [2]", "result": "0 ± 0", "unit": "nmol/min"},
      {"measurement": "P-N bond cleavage under acidic pH", "setting": "[1]; acidic pH mimicking intracellular lysosomal conditions", "result": "no RDV MetX hydrolysis product was detectable; also recorded: completely resistant to acid hydrolysis"},
      {"measurement": "half-life at 1 μM", "setting": "[1]; buffer, pH 4.5", "result": "> 6.94", "unit": "days"},
      {"measurement": "HINT1 hydrolysis", "setting": "HINT1; 1 μM substrate, 250 nM HINT1, pH 7.2, 37°C", "result": "32 ± 12", "unit": "nmol/min/mg"},
      {"measurement": "half-life at 1 μM", "setting": "HINT1; human, recombinant HINT1, 1 μM substrate, 250 nM HINT1, pH 7.2, 37°C, read-out: t1/2, HINT1 hydrolysis (converted)", "result": 5.5, "unit": "min"},
      {"measurement": "HINT1 metabolism rate relative to GS-6620 MetX", "setting": "HINT1; times faster than known substrate GS-6620 MetX", "result": 6, "unit": "times"}
    ]},
    {"smiles": "CC(C)OC(=O)[C@H](C)N[P@](=O)(CO[C@H](C)Cn1cnc2c(N)ncnc21)Oc1ccccc1", "note": "[TAF (GS-7340), tenofovir alafenamide fumarate]", "values": [
      {"measurement": "Activity for amidate ester cleavage, CatA", "setting": "CatA; 1 μM substrate, 5 nM CatA, pH 6.5, 37°C", "result": "254 ± 154", "unit": "nmol/min/mg"},
      {"measurement": "half-life at 1 μM", "setting": "CatA; human, pH 6.5", "result": 13, "unit": "min"}
    ]},
    {"smiles": "CC(Cn1cnc2c(N)ncnc21)OCP(=O)(O)NC(C)C(=O)O", "note": "(stereo not shown) [TAF MetX]", "values": [
      {"measurement": "Lysosomal hydrolysis at pH 4.5", "setting": "[1]; [2]", "result": "1.2 ± 0.6 × 10^−3 nmol/min"},
      {"measurement": "t1/2, lysosomal hydrolysis at pH 4.5", "setting": "[1]; [2]", "result": "16 ± 7", "unit": "min"}
    ]}
  ]
}
